# According to US20220170028A1, “NOVEL INTERLEUKIN-2 VARIANTS AND BIFUNCTIONAL FUSION MOLECULES THEREOF” (Cugene Inc, priority 2019, published 2022):
# Assays:
# [1] = Aggregate content by size-exclusion chromatography after Protein A purification; format: physicochemical; conditions: Isoleucine-125 constructs; after MabSelectSure
# Description: For affinity chromatography each supernatant was loaded on a HiTrap MabSelectSure column (CV=5 mL, GE Healthcare) equilibrated with 25 ml phosphate buffered saline, pH 7.2 (ThermoFisher). Unbound protein was removed by washing with 5 column volumes PBS, pH 7.2 and target protein was eluted with 25 mM sodium citrate, 25 mM sodium chloride, pH 3.2. Protein solution was neutralized by adding 3% of 1 M Tris pH 10.2. Ion exchange chromatography or mix-mode chromatography, including but not limited to CaptoMMC (GE Healthcare), ceramic hydroxyapatite, or ceramic fluoroapatite (Bio-Rad) was also utilized to polish the Protein A material as needed. Target protein was concentrated with an Amicon®Ultra-15 concentrator 10 KDa NMWC (Merck Millipore Ltd.)
# The purity and molecular weight of the purified constructs were analyzed by SDS-PAGE with and in the absence of a reducing agent and staining with Coomassie (Imperial® Stain). The NuPAGE® Pre-Cast gel system (4-12% or 8-16% Bis-Tris, ThermoFisher) was used according to the manufacturer's instructions. The protein concentration of purified protein samples was determined by measuring the UV absorbance at 280 nm (Nanodrop Spectrophotometer, ThermoFisher) divided by the molar extinction coefficient calculated on the basis of the amino acid sequence. The aggregate content of the constructs was analyzed on an Agilent 1200 high-performance liquid chromatography (HPLC) system. Samples were injected onto an AdvanceBio size-exclusion column (300 Å, 4.6×150 mm, 2.7 μm, LC column, Agilent) using 150 mM sodium phosphate, pH 7.0 as the mobile phase at 25° C.
# S125I substitution was thus introduced into a number of IL-2 variant Fc fusion molecules. The constructs harboring Ile-125 substitution in IL-2 were expressed using the same vector and in the same culturing conditions as their Ser-125 counterparts and purified using MabSelectSure. The expression level in mg/L and purity assessed by SEC chromatography in aggregation % of exemplary molecules are summarized in Table 6. The two molecules in the same row of Table 6 share the same other amino acid substitution(s) and differ only at residue 125 with either serine or isoleucine. As an example, the SEC chromatogram and SDS-PAGE pictures of P-0447 (SEQ ID NO: 173) and its Ile-125 counterpart P-0511 (SEQ ID NO: 213) were further illustrated in FIGS. 1D and 1E.
# [2] = tested on: STAT5 phosphorylation in CD4+ Tconv cells; assay: STAT5 phosphorylation in CD4+ Tconv cells, human PBMC assay by FACS; format: cell-based
# Text: Single amino acid substitutions were introduced to IL-2 at positions corresponding to amino acids interacting with receptor subunit(s) β or γ or βγ. These substitutions were aimed to reduce IL-2 signaling capacity through the intermediate affinity IL-2Rβγ complex and confer signaling specificity from the high affinity IL-2Rαβγ. IL-2 variants containing single amino acid substitutions were examined for their ability to differentially stimulate STAT5 phosphorylation in CD4 positive Treg and Tconv cells. STAT5 is known to be involved in the downstream signaling cascade upon IL-2 binding to the transmembrane IL-2 receptors. The phosphorylation of STAT5 in defined lymphocyte subpopulations was measured using fresh human peripheral blood mononuclear cells (PBMC) and the forkhead transcription factor FOXP3 was used to identify the Treg population in FACS analysis.
# Briefly, human PBMC were isolated by Ficoll-Hypaque centrifugation from the buffy coat of a healthy donor. PBMC were starved in serum-free MACS buffer at 4° C. for 1 hour. 2×10^5 PBMC were then treated with serial dilutions of test compounds for 30 min at 37° C. Cells were fixed and permeabilized with Foxp3/Transcription Factor Staining Buffer Set (EBIO) by incubating with 1× Foxp3 fixation/permeabilization working solution for 30 minutes and washing with 1× permeabilization buffer. Cells were additionally fixed with Cytofix buffer and permeabilized with Perm Buffer III (BD Biosciences) and then washed. After blocking Fc receptors by adding human TruStain FcX (1:50 dilution), cells were stained with a mixture of anti-CD25-PE, anti-FOXP3-APC, anti-pSTAT5-FITC, and anti-CD4-PerCP-Cy5.5 antibodies at concentrations recommended by the manufacturer for 45 minutes at room temperature. Cells were collected by centrifugation, washed, resuspended in FACS buffer, and analyzed by flow cytometry. The flow cytometry data was gated into CD4+/Foxp3+/CD25^high and CD4+/Foxp3−/CD25^low groups for the Treg and CD4 conventional T cell subsets, respectively. Data are expressed as a percent of pStat5 positive cells in gated population.
# Treg cells = assay: Treg proliferation and expansion in mice after a single subcutaneous injection (Example 9); format: in vivo, mouse; conditions: 0.3 mg/kg single s.c., C57/BL6 mice
# Description: (§1) IL-2 variant Fc fusion proteins were administered to mice and their ability to preferentially proliferate and expand regulatory T cells (CD4+CD25+FoxP3+ T cells) over effector T cells and NK cells were determined in vivo.
# (§2) Female C57/BL6 mice (7-week old) were received from Charles River Laboratory and acclimated in house for at least 7 days before the study. Vehicle (PBS), 0.3 mg/kg of each test compounds, or IL-2 benchmark compounds were subcutaneously administered to mice on day 0. Peripheral blood samples were collected into heparin-treated tubes on days 3, 5 and 7 post-treatment. Each group contained 6 mice and baseline blood was collected 2 days prior to the treatment (day −2). After red blood cell lysis, total viable mononuclear blood cells were counted by trypan blue dead cell exclusion method and proceeded to intracellular staining for immune cell phenotype and Ki67 proliferation markers using flow cytometric analysis. Cells were stained separately with two panels of antibodies as listed: 1) anti-mouse Foxp3-FITC, Ki67-PE, anti-mouse CD25-APC and anti-mouse CD4-Percpcy5.5 (1:50 dilution) for CD4+T-regulatory cells (Treg); 2) anti-mouse CD3-FITC, Ki67-PE, anti-mouse CD335-APC and anti-mouse CD8-Percpcy5.5 (1:50 dilution) for CD8+T and NK cells.
# [3] = tested on: CD4+ Treg vs CD4+ Tconv cells; assay: STAT5 phosphorylation, selectivity / activity profile Treg versus CD4+ Tconv cells, human PBMC; format: cell-based
# In short: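 Fresh human PBMC from a healthy donor, serum-starved 1 h at 4 °C, then exposed to serial dilutions of IL-2 variants for 30 min at 37 °C. After fixation/permeabilization, cells stained for CD4, CD25, FOXP3 and pSTAT5 and analysed by flow cytometry. Treg (CD4+/Foxp3+/CD25high) and Tconv (CD4+/Foxp3−/CD25low) gated; read-out is percent pSTAT5-positive cells.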
# [4] = tested on: CD4+ Tconv cells, CD8 T cells and NK cells; assay: Effector T cell and NK cell proliferation and expansion in mice after a single subcutaneous injection (Example 9); format: in vivo, mouse; conditions: 0.3 mg/kg single s.c., C57/BL6 mice
# Description: as §1, §2
substance,measurement,setting,value
"P-0511: IL-2 L19H/S125I/Q126E Fc fusion, SEQ ID NO: 213",Aggregation % (SEC),[1],0.7%
same,STAT5 phosphorylation activity in CD4+ Tconv cells (in words),[2],nearly completely abolished
same,Treg/Tconv ratio (Ki67 stimulation and cell counts),Treg cells; all measured time points,most beneficial Treg/Tconv ratio
same,stimulation of Treg cell proliferation and expansion in vivo (in words),"Treg cells; days 3, 5, 7",stronger in vivo efficacy
same,activity profile / selectivity window Treg over CD4+ Tconv (in words),[3],further widened the Treg selectivity window
same,Treg Selectivity,[3]; Isoleucine-125 constructs,Yes
same,Ki67 stimulation on CD8 T cells and NK cells in vivo (in words),[4],mild Ki67 stimulation
same,"expansion of CD4+ Tconv cells, CD8 T cells or NK cells in vivo",[4],No significant expansion
